Test results: patent US9918983B2, “Suicidal LSD1 inhibitors targeting SOX2-expressing cancer cells” (THE BOARD OF REGENTS OF THE NEVADA SYSTEM OF HIGHER …, priority 2013, dated 2018)

How the values were obtained:
BT-549 cells = test: Cell growth/viability (MTT, microscopy); format: cell-based, human; conditions: BT549 cells, 50 μM, 30 hours
Procedure: (§1) Lung, breast, ovarian, and other carcinoma cells were either obtained from American Type Culture Collection (ATCC) or from the DTP and DCTD Tumor Repository of National Cancer Institute (the NCI-60 cancer cell line panel), operated by Charles River Laboratory, Inc., as listed in Table 1. They were cultured according to instructions and treated with various concentrations of LSD1 inhibitors for 30-36 hours for mRNA analysis by quantitative real time RT-PCR or for 30-48 hours for protein analysis and the cell viability assays using Western blotting or microscopy and MTT assays as described previously (Wang, J., et al. (2011) Cancer Research 71, 7238-7249).
(§2) Alternatively, cell viability assays were conducted as previously described (Wang, J., et al. (2011) Cancer Research 71, 7238-7249). For the MTT assay, cells were seeded onto 96-well culture plates with a density of 2000-5000 cells/well, and incubated with CBB1003 or CBB1007 at various concentrations from 1 to 100 μM for 30-48 hours, depending cell growth rate. Dimethylsulfoxide (DMSO) was used as a solvent control. MTT was added to a final concentration of 0.5 mg/mL and cells were re-incubated for 4 hours. After removing the medium, 200 μL DMSO was added to dissolve formazan, followed by incubation for 10 minutes, and absorbance was measured at 490 nm by a Bio Red microplate reader. All assays were performed in triplicates for each concentration. The cell viability rate was calculated as the relative percentage of MTT absorption as follows: % cell viability=(mean experimental absorbance/mean control absorbance)×100.

HS38.T cells = test: Cell growth/viability (MTT, microscopy); format: cell-based, human; conditions: 50 μM, 30 hours
Procedure: as §1, §2

MCF7 cells = test: Cell growth/viability (MTT, microscopy); format: cell-based, human; conditions: 50 μM, 30 hours
Procedure: as §1, §2

IGROV-1 cells = test: Cell growth/viability (MTT, microscopy); format: cell-based, human; conditions: 50 μM, 30 hours
Procedure: as §1, §2

SKOV-3 cells = test: Cell growth/viability (MTT, microscopy); format: cell-based, human; conditions: 50 μM, 30 hours
Procedure: as §1, §2

SK-BR-3 cells = test: Cell growth/viability (MTT, microscopy); format: cell-based, human; conditions: 50 μM, 30 hours
Procedure: as §1, §2

ES-2 cells = test: Cell growth/viability (MTT, microscopy); format: cell-based, human; conditions: ES-2 cells, 50 μM, 30 hours
Procedure: as §1
as §2, with “For the MTT assay, cells were seeded onto 96-well culture plates with a density of 2000-5000 cells/well, and incubated with CBB1003 or CBB1007 at various concentrations from 1 to 100 μM for 30-48 hours, depending cell growth rate.” left out
Table 8 below lists activity of CBB3001 (compound 10) in Sox2-negative (ES-2) and Sox2-expressing (PA-1 and T47D) cancer cells determined in a cell-based assay as described herein (see also FIG. 3A-C).

HDAC1-protein A complex = molecular target: T1, HDAC1-protein A complex (Mus musculus, UniProt O09106); test: In vitro deacetylation assay, immunoaffinity-purified HDAC1-protein A complex from F9 cells; format: biochemical; conditions: H4K16ac peptide; 50 μM CBB1007 or 2 μM MS-275
T1 construct: 1 μg immunoprecipitated endogenous HDAC1-protein A complexes; endogenous in cells; host or cells: F9 mouse teratocarcinoma cells, anti-HDAC1 immunoprecipitate on protein A-Sepharose
Procedure: The immunocomplexes were captured by protein A-Sepharose. Isolated LSD1-protein A or HDAC1-protein A complexes were verified by Western blotting with LSD1 and HDAC1 antibodies.
The percentages of deacetylated products were analyzed by mass spectrometry, and the data were analyzed by GraphPad Prism (version 5) software.

[1] = tested on: histone H3 and H4 methylation and acetylation; test: Histone modifications in F9 cells (Western blotting); format: cell-based, mouse
Procedure: To quantify and compare the protein band densities in the Western blots shown in the figures, a titration by serial dilution of the siRNA protein samples for mES cell lysates was used as a reference. The concentration of titration samples was measured by use of a NanoDrop 2000 apparatus, and the protein concentration of all titration samples was adjusted to 1 μg/μL. The protein samples were loaded onto an SDS-polyacrylamide gel at levels ranging from 1 μg to 13 μg at 2-μg intervals and immune blotted with each antibody, including anti-LSD1, anti-HDAC1, and anti-histone H3 antibodies, with three independent loadings. The Western blots were developed with exposure times ranging from 30 s to 1 min. The exposure density of each band was scanned by Adobe Photoshop Elements (version 4.0) software using a CanonScan 8600F scanner (Canon, Calif.) and was subsequently quantified by use of the area density tool of Gel-Pro Analyzer (version 4.0) software (Media Cybernetics, Inc.) and plotted. The regression analysis of each signal was performed by use of the Microsoft Excel program's Analysis Tool Pak regression option. […] The amount of the protein band in the Western blot shown in the figures was quantified by scanning, as described for the reference titration. […] The quantity of protein band densities between two protein samples was externally corrected by use of the reference plots. […] The statistical differences between the experimental and control groups were analyzed by one-way analysis of variance (ANOVA). […]
Referring to FIG. 28D, time course analyses of the effects of 50 μM LSD1 inhibitor CBB1007 on histone modifications in F9 cells are shown, but with a shorter time course than above. The mean density of each band was quantified by the use of Gel-Pro Analyzer (version 4.0) software, and error bars represent SEMs for duplicate samples. […] The statistical differences were analyzed by one-way ANOVA. *, P_0.05; **, P_0.01. […]

T1 sequence (O09106 whole entry, other chains not shown): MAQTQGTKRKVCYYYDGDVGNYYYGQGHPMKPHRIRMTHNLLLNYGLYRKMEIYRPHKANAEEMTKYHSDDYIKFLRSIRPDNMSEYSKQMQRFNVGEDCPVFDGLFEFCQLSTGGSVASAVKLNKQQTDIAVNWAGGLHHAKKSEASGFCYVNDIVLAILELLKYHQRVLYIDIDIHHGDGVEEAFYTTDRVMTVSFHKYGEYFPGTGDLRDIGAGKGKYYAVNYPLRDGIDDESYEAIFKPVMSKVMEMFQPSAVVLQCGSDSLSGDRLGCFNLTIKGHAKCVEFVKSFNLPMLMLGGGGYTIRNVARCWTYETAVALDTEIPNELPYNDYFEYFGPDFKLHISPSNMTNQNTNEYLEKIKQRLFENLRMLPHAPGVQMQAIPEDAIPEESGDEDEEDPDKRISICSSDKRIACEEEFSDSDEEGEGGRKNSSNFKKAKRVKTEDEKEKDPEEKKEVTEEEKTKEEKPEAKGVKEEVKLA
T1 sequence (Q8CFE3 whole entry partner, other chains not shown): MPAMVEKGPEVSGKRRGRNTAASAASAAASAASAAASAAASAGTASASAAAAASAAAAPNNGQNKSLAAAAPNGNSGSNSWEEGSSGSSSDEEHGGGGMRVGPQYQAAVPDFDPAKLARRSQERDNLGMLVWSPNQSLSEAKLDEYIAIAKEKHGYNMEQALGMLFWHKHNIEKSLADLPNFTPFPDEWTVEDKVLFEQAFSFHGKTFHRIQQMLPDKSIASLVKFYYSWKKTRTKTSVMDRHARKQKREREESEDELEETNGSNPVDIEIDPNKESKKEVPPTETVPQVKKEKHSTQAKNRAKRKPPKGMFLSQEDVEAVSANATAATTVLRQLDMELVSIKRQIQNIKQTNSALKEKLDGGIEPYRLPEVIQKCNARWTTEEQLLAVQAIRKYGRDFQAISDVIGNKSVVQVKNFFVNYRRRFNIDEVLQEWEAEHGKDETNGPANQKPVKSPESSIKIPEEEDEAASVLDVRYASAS

**Q.** `COC(=O)c1cc(CN2CCN(C(=N)N)CC2)cc(C(=O)N2CCN(C(=O)c3ccc(C(=N)N)cc3)CC2)c1` [CBB1007] was tested. Which cell growth (BT-549 cells) did it give?
**A.** not sensitive

**Q.** And the cell growth (HS38.T cells)?
**A.** not sensitive

**Q.** What about the cell growth (MCF7 cells) of the same molecule?
**A.** sensitive

**Q.** What about the cell growth (IGROV-1 cells) of the same molecule?
**A.** sensitive

**Q.** And the cell growth (SKOV-3 cells)?
**A.** sensitive

**Q.** What about the cell growth (SK-BR-3 cells) of the same molecule?
**A.** not sensitive

**Q.** What about the cell growth (ES-2 cells) of the same molecule?
**A.** not sensitive

**Q.** And the “deacetylase activity of immunoaffinity-purified HDAC1 (HDAC1-protein A)” value (HDAC1-protein A complex)?
**A.** sufficient to inhibit the deacetylase activity

**Q.** What about the “H3K4 methylation of oligonucleosomes from treated cells” value [1] of the same molecule?
**A.** hypermethylated on H3K4

**Q.** And the “time to increases of acetylation at H4K16 and H3K56 and mono- and dimethylation at H3K4” value ([1]; 50 μM)?
**A.** ≤ 20 min
